For six compounds, inhibition, IC50 and Ki results are on record in ChEMBL document CHEMBL2424595, “Substituted pyrrolo[2,3-d]pyrimidines as Cryptosporidium hominis thymidylate synthase inhibitors” (Bioorg Med Chem Lett, 2013).

The target of assay [1] is Thymidylate synthase (Homo sapiens) (UniProt P04818). Nature of the assay: Inhibition of human thymidylate synthase.
Assay [2] can be described thus: Inhibition of Cryptosporidium hominis thymidylate synthase.
The next assay deals with Cryptosporidium hominis. Nature of the assay: Inhibition of Cryptosporidium hominis DHFR.

The source made the active and inactive calls. The calls are words filed in the database; no cut-off is given here.

Thymidylate synthase (Homo sapiens), sequence (P04818 2-313 limits assumed): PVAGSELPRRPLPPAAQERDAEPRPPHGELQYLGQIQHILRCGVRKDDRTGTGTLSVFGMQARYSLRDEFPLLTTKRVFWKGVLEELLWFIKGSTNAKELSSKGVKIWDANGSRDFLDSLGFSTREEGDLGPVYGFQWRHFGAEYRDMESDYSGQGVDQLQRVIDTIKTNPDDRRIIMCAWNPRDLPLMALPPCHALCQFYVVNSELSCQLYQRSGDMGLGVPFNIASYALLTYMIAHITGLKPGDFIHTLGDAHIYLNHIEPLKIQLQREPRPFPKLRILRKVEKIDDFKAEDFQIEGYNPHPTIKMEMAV

Turning to `Cc1[nH]c2nc(N)[nH]c(=O)c2c1Sc1ccc(C(=O)N[C@@H](CCC(=O)O)C(=O)O)c(Cl)c1`, the inhibition entry in assay [1] is “Active”. In assay [2], this compound showed an IC50 of 10 nM and a Ki of 8.83 nM. The inhibition entry with Cryptosporidium hominis was “Active”. In assay [2], `Nc1nc2[nH]cc(CCc3ccc(C(=O)N[C@@H](CCC(=O)O)C(=O)O)cc3)c2c(=O)[nH]1` [PEMETREXED] returned an IC50 of 2090 nM.

`Nc1nc2[nH]cc(CCCCCc3ccc(C(=O)N[C@@H](CCC(=O)O)C(=O)O)cc3)c2c(=O)[nH]1`: in assay [2], the IC50 worked out at 31100 nM. Still for that read-out and setting: the same measure for `Nc1nc2[nH]cc(CCCc3ccc(C(=O)N[C@@H](CCC(=O)O)C(=O)O)cc3)c2c(=O)[nH]1`: 2440 nM. On to `Nc1nc2[nH]cc(Cc3ccc(C(=O)N[C@@H](CCC(=O)O)C(=O)O)s3)c2c(=O)[nH]1`, for which the inhibition entry (in assay [1]; with Cryptosporidium hominis) was “Active” each time. Moreover, it took 30 nM to reach half-maximal inhibition in assay [2] (IC50).

Compound `Nc1nc2[nH]cc(Cc3ccc(C(=O)N[C@@H](CCC(=O)O)C(=O)O)cc3)c2c(=O)[nH]1` had an IC50 in assay [2] of 380 nM.

The term IC50 denotes the concentration needed to halve the response being measured. Higher therefore signals weaker potency in that assay. For orientation: Ki means a dissociation constant, usually derived from enzyme kinetics or from competition with a known ligand. A high value points to weaker binding.
